According to patent US10166226B2, “CGRP receptor antagonists” (Heptares Therapeutics Limited, priority 2015, dated 2019):
Values after ≈ are worked out from the molar mass of the structure shown. Read-outs that look alike come from different tables or passages of the source.

Legend:
[1] = target: Human CGRP receptors (consisting of CRLR and RAMP1) (Homo sapiens (Human), UniProt O60894+Q16602); experiment: Radioligand binding assay (3H-telcagepant displacement); settings: Sf21 cell membranes, 0.5 nM 3H-telcagepant, Ki by Cheng-Prussoff
Experimental: Human Calcitonin Receptor Like Receptor (CRLR) and human RAMP1 were cloned into Invitrogen's (ThermoFisher Scientific, UK) pFastBac dual expression vector. Transposition of CRLR/RAMP1 DNA was performed using Invitrogen's Bac-to-Bac Baculovirus Expression Systems. P0 baculovirus was generated by transfecting SF9 cells with bacmid DNA using Cellfectin® II transfection reagent (ThermoFisher Scientific, UK, catalog number 10362-100). Following P0 generation P1 virus was then generated ready for large scale infection and membrane preparation. Sf21 cells were grown in expression medium ESF921 (Expression Systems, USA, catalog number 96-001-01) supplemented with 10% heat-inactivated FBS and 1% Pen/Strep and were infected at a cell density of 2.5×10^6 cells/mL and an MOI of 2. Expression was carried out over 48 h in a shaking incubator set at 27° C. The cell culture was centrifuged at 2,500 rcf for 10 min at 4° C. The pellets were resuspended in cold PBS supplemented with Roche's Complete EDTA-free protease inhibitor cocktail tablets (Roche Applied Sciences, catalog number 05056489001), 1 mM PMSF and 1 mM EDTA. The resuspended cell paste was then centrifuged at 3,273 rcf for 12 min at 4° C. The supernatant was discarded and the pellet frozen at −80° C. The cell pellet from a 4 L culture was resuspended in buffer containing 50 mM Hepes pH 7.5, 150 mM NaCl, 8 Roche EDTA-free protease inhibitor cocktail tablets and 1 mM PMSF. The suspension was left stirring at rt for 1 h and then homogenised for 90 s at 9,500 rpm using a VDI 25 (VWR, USA) homogeniser. The cells were then lysed using a Microfluidizer processor M-110L Pneumatic (Microfluidics, USA). After lysis, the mixture was homogenised for 90 s at 9,500 rpm and then centrifuged at 335 rcf for 10 min. The supernatant was then further ultra-centrifuged at 42,000 rpm for 90 min. After ultra-centrifugation, the supernatant was discarded and the pellet was resuspended in 50 mL (25 mL for each 2 L culture) of buffer containing 50 mM Hepes pH 7.5, 150 mM NaCl, 3 Roche EDTA-free protease inhibitor cocktail tablets and 1 mM PMSF. The suspension was then homogenised for 90 s at 9,500 rpm. The resulting membranes were then stored at −80° C.
Human CGRP receptors (consisting of CRLR and RAMP1) expressed in insect Sf21 cell membrane homogenates were re-suspended in the binding buffer (10 mM HEPES, pH 7.4, 5 mM MgCl2, 0.2% BSA) to a final assay concentration of […]. Saturation isotherms were determined by the addition of various concentrations of ^3H-telcagepant (Ho et al, The Lancet, 2008, 372, 2115) (in a total reaction volume of 250 μL) for 60 min at room temperature. At the end of the incubation, membranes were filtered onto a unifilter, a 96-well white microplate with bonded GF/B filter pre-incubated with 0.5% PEI, with a Tomtec cell harvester and washed 5 times with distilled water. Non-specific binding (NSB) was measured in the presence of 10 nM MK-3207 hydrochloride (CAS No. 957116-20-0). Radioactivity on the filter was counted (1 min) on a microbeta counter after addition of 50 μL of scintillation fluid.

[2] = Pharmacokinetic profiling in cynomolgus monkey; assay type: in vivo, male Cynomolgus Monkeys; settings: male, plasma, 0.5 mg/kg, acidified saline; for clearance: cynomolgus monkey iv; for bioavailability: cynomolgus monkey sc
Experimental: (§1) Following dosing by the routes above blood samples were taken at several time points (typically pre-dose, 0.083, 0.25, 0.5 1, 2, 4, 8 and 24 h) via serial tail vein bleeds (rat) or cephalic or saphenous vein (monkey) from the animal and centrifuged to separate plasma for analysis by LC/MS/MS assay. WinNonlin v6.2 statistics software (Pharsight Corporation, California, USA) was used to generate pharmacokinetic parameters using the non-compartmental model.

[3] = Thermodynamic solubility profiling; assay type: physicochemical; settings: aqueous buffer, thermodynamic from solid
Experimental: A 50 mM DMSO stock solution of test compound was prepared, and from this, a working solution of 1 mM was prepared by dilution with DMSO. The UV absorbance of working solution was scanned from 220 nm to 1000 nm to identify the wavelength maxima of test compound. The 1 mM working solution was then serially diluted in DMSO to different concentrations to determine linearity/calibration curve. […] The resulting solution was then kept on a RotoSpin shaker at 50 rpm for 24 h at rt before the solution was filtered using 0.45 micron PVDF injector filters in order to remove the insoluble fraction of the compound. Subsequently, 150 uL of the filtrate is taken for quantification using a UV spectrophotometer, acquiring the optical density of standard solutions and test compound at the same wavelength maxima. From the optical density of test compound the thermodynamic solubility is calculated using the linearity/calibration curve and expressed as micromolar (μM). Solubility profiles of certain compounds of the invention are detailed in Table 6.

[4] = Pharmacokinetic profiling in rat; assay type: in vivo, male Sprague Dawley rats; settings: male, Sprague Dawley, plasma
Experimental: Prior to IN dosing rats were anaesthetised with an intramuscular dose of 25-30 mg/kg ketamine cocktail (ketamine, xylazine hydrochloride and acepromazine maleate in saline) and the dose is introduced over 20-30 s via a polyethylene PE-10 tube inserted approximately 5 mm into the nasal cavity of the rat.
as §1

human CGRP receptor = human CGRP receptor (Homo sapiens (Human), UniProt O60894+Q16602); experiment: cAMP functional assay (HTRF) in SK-N-MC cells; assay type: cell-based; settings: read-out: pKb average (converted)
Experimental: cAMP production following receptor activation was determined using the Homogeneous Time-Resolved Fluorescence (HTRF) cAMP dynamic-2 assay (Cisbio, France). The human neuroblastoma cell line SK-N-MC endogenously expressing the human CGRP receptor was seeded at a density of 12,500 cells/well in solid walled 96 well half area plates (Costar, Catalog Number 3688, Corning Life Sciences, Germany). After 16 h incubation at 37° C. media was removed and cells were incubated at 37° C. for 30 min in serum free media containing 500 μM IBMX (Tocris, Abingdon, UK, Catalog Number 2845) and increasing concentrations of test antagonist. Following this cells were challenged with an EC80 concentration of human CGRP (0.3 nM) for a further 30 min at 37° C. and then cAMP production was determined as manufacturer's instructions before plates were read on a PheraStar fluorescence plate reader (BMG LabTech, Germany). IC50 values were derived from the inhibition curve. The pIC50 values (where pIC50=−log10 IC50) were converted to a functional pKb value using a modified Cheng-Prussoff equation where Kd=agonist EC50 and L hot=agonist challenge concentration. The pKb values of certain compounds of the invention are detailed in Table 3.

[5] = PBS buffer pH 7.4, 24 h at rt, read-out: Thermodynamic solubility pH 7.4
[6] = Sodium Phosphate Buffer pH 6.0, 24 h at rt, read-out: Thermodynamic solubility pH 6

Sequence of Human CGRP receptors (consisting of CRLR and RAMP1) (Q16602 23-461): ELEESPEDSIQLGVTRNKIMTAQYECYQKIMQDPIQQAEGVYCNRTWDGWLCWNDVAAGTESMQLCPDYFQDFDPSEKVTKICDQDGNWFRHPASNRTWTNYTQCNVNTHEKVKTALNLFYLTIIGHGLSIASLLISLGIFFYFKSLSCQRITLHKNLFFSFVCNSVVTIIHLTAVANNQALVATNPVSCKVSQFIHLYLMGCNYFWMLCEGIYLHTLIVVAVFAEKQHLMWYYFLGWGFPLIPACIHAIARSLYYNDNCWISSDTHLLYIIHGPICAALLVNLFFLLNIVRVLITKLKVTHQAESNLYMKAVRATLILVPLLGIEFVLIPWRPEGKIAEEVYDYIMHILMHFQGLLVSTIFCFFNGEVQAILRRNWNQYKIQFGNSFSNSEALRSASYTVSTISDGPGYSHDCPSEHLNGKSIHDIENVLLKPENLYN
Sequence of Human CGRP receptors (consisting of CRLR and RAMP1) (O60894 27-148): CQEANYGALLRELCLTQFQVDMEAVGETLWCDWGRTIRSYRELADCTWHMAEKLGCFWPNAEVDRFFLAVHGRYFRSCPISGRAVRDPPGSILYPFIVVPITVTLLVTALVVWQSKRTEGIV
Sequence of human CGRP receptor (Q16602 23-461): as the sequence (Q16602 23-461) above
Sequence of human CGRP receptor (O60894 27-148): as the sequence (O60894 27-148) above

SMILES	pKi average [1]	clearance [2] [mL/min/kg]	bioavailability [2] [%]	solubility thermodynamic at 24 h [3, 5] [µM]	solubility thermodynamic at 24 h [3, 6] [µM]	bioavailability ([4]; inhaled or intranasal) [%]	bioavailability ([4]; sc) [%]	Kb (human CGRP receptor) [pM]
Cc1nc[nH]c1C1CCN(C2CCN(C(=O)[C@@H](Cc3cc(C)c4[nH]ncc4c3)NC(=O)N3CCC(c4cc5ccccc5[nH]c4=O)CC3)CC2)CC1 [Example 2, N-[(2R)-1-[4-(4-methyl-1H-imidazol-5-yl)-1,4′-bipiperidin-1′-yl]-3-(7-methyl-1H-indazol-5-yl)-1-oxopropan-2-yl]-4-(2-oxo-1,2-dihydroquinolin-3-yl)piperidine-1-carboxamide]	10.1	24	100	18 (≈ 12.7 µg/mL)	2040 (≈ 1440 µg/mL)	25	69	316
Cc1cc(C[C@@H](NC(=O)N2CCC(c3cc4ccccc4[nH]c3=O)CC2)C(=O)N2CCC(N3CCC(c4ncc[nH]4)CC3)CC2)cc2cn[nH]c12 [Example 1, N-[(2R)-1-[4-(1H-imidazol-2-yl)-1,4′-bipiperidin-1′-yl]-3-(7-methyl-1H-indazol-5-yl)-1-oxopropan-2-yl]-4-(2-oxo-1,2-dihydroquinolin-3-yl)piperidine-1-carboxamide]	10.3							200
Cc1cc(C[C@@H](NC(=O)N2CCC(c3cc4ccccc4[nH]c3=O)CC2)C(=O)N2CCC(N3CCC(c4nnc[nH]4)CC3)CC2)cc2cn[nH]c12 [Example 7, N-{(2R)-3-(7-methyl-1H-indazol-5-yl)-1-oxo-1-[4-(4H-1,2,4-triazol-3-yl)-1,4′-bipiperidin-1′-yl]propan-2-yl}-4-(2-oxo-1,2-dihydroquinolin-3-yl)piperidine-1-carboxamide]	9.8			342 (≈ 236 µg/mL)	785 (≈ 542 µg/mL)			316
Cc1cc(C[C@@H](NC(=O)N2CCC(c3cc4ccc(F)cc4[nH]c3=O)CC2)C(=O)N2CCC(N3CCC(c4nncn4C)CC3)CC2)cc2cn[nH]c12 [Example 5, 4-(7-fluoro-2-oxo-1,2-dihydroquinolin-3-yl)-N-{(2R)-3-(7-methyl-1H-indazol-5-yl)-1-[4-(4-methyl-4H-1,2,4-triazol-3-yl)-1,4′-bipiperidin-1′-yl]-1-oxopropan-2-yl}piperidine-1-carboxamide]	9.9			239 (≈ 173 µg/mL)	1540 (≈ 1110 µg/mL)			631
Cc1cc(C[C@@H](NC(=O)N2CCC(c3cc4ccccc4[nH]c3=O)CC2)C(=O)N2CCC(N3CCC(c4nnc(C(=O)O)[nH]4)CC3)CC2)cc2cn[nH]c12 [Example 9, 5-{1′-[(2R)-3-(7-methyl-1H-indazol-5-yl)-2-({[4-(2-oxo-1,2-dihydroquinolin-3-yl)piperidin-1-yl]carbonyl}amino)propanoyl]-1,4′-bipiperidin-4-yl}-4H-1,2,4-triazole-3-carboxylic Acid]	10.3							398
Cc1nnc(C2CCN(C3CCN(C(=O)[C@@H](Cc4cc(C)c5[nH]ncc5c4)NC(=O)N4CCC(c5cc6ccccc6[nH]c5=O)CC4)CC3)CC2)[nH]1 [Example 8, N-{(2R)-3-(7-methyl-1H-indazol-5-yl)-1-[4-(5-methyl-4H-1,2,4-triazol-3-yl)-1,4′-bipiperidin-1′-yl]-1-oxopropan-2-yl}-4-(2-oxo-1,2-dihydroquinolin-3-yl)piperidine-1-carboxamide]	10.0			359 (≈ 253 µg/mL)	1220 (≈ 858 µg/mL)			316
NCCCC[C@H](NC(=O)[C@@H](Cc1cc(Br)c(O)c(Br)c1)NC(=O)N1CCC(N2Cc3ccccc3NC2=O)CC1)C(=O)N1CCN(c2ccncc2)CC1 [olcegepant, reference compound]				431 (≈ 375 µg/mL)	150 (≈ 130 µg/mL)	8	48	
CCCn1ccnc1C1CCN(C2CCN(C(=O)[C@@H](Cc3cc(C)c4[nH]ncc4c3)NC(=O)N3CCC(c4cc5ccccc5[nH]c4=O)CC3)CC2)CC1 [Example 3, N-{(2R)-3-(7-methyl-1H-indazol-5-yl)-1-oxo-1-[4-(1-propyl-1H-imidazol-2-yl)-1,4′-bipiperidin-1′-yl]propan-2-yl}-4-(2-oxo-1,2-dihydroquinolin-3-yl)piperidine-1-carboxamide]	9.8			2 (≈ 1.46 µg/mL)	1250 (≈ 914 µg/mL)			398
Cc1cc(C[C@@H](NC(=O)N2CCC(c3cc4ccccc4[nH]c3=O)CC2)C(=O)N2CCC(N3CCC(c4nncn4C)CC3)CC2)cc2cn[nH]c12 [Example 4, N-{(2R)-3-(7-methyl-1H-indazol-5-yl)-1-[4-(4-methyl-4H-1,2,4-triazol-3-yl)-1,4′-bipiperidin-1′-yl]-1-oxopropan-2-yl}-4-(2-oxo-1,2-dihydroquinolin-3-yl)piperidine-1-carboxamide]	10.0	15	100	32 (≈ 22.6 µg/mL)	1590 (≈ 1120 µg/mL)	27	82	631
CCOC(=O)c1nnc(C2CCN(C3CCN(C(=O)[C@@H](Cc4cc(C)c5[nH]ncc5c4)NC(=O)N4CCC(c5cc6ccccc6[nH]c5=O)CC4)CC3)CC2)[nH]1 [Example 6, ethyl 5-{1′-[(2R)-3-(7-methyl-1H-indazol-5-yl)-2-({[4-(2-oxo-1,2-dihydroquinolin-3-yl)piperidin-1-yl]carbonyl}amino)propanoyl]-1,4′-bipiperidin-4-yl}-4H-1,2,4-triazole-3-carboxylate]	10.2							200
